Patent US12528819B2 (priority 2016, dated 2026)
“Also recorded” adds a separate entry of the source. Where two headings read alike, the source gives them in different places.

Key:
aged-impaired (AI) rats = test: Radial Arm Maze (RAM) behavioral task, spatial memory retention; assay type: in vivo, rat; conditions: two-hour delay
Procedure: The effects of methyl 3,5-diphenylpyridazine-4-carboxylate on the in vivo spatial memory retention of aged-impaired (AI) rats were assessed in a Radial Arm Maze (RAM) behavioral task using vehicle control and four different dosage levels of methyl 3,5-diphenylpyridazine-4-carboxylate (0.1 mg/kg, 0.3 mg/kg, 1 mg/kg and 3 mg/kg, ip). RAM behavioral tasks were performed on eight AI rats. All five treatment conditions (vehicle and four dosage levels) were tested on all eight rats.
The RAM apparatus used consisted of eight equidistantly-spaced arms. An elevated maze arm (7 cm width×75 cm length) projected from each facet of an octagonal center platform (30 cm diameter, 51.5 cm height). Clear side walls on the arms were 10 cm high and were angled at 65° to form a trough. A food well (4 cm diameter, 2 cm deep) was located at the distal end of each arm. Froot Loops™ (Kellogg Company) were used as rewards. Blocks constructed of Plexiglas™ (30 cm height×12 cm width) could be positioned to prevent entry to any arm. Numerous extra maze cues surrounding the apparatus were also provided.
The AI rats were initially subjected to a pre-training test (Chappell et al. Neuropharmacology 37: 481-487, 1998). The pre-training test consisted of a habituation phase (4 days), a training phase on the standard win-shift task (18 days) and another training phase (14 days) in which a brief delay was imposed between presentation of a subset of arms designated by the experimenter (e.g., 5 arms available and 3 arms blocked) and completion of the eight-arm win-shift task (i.e., with all eight arms available).
In the habituation phase, rats were familiarized to the maze for an 8-minute session on four consecutive days. In each of these sessions, food rewards were scattered on the RAM, initially on the center platform and arms and then progressively confined to the arms. After this habituation phase, a standard training protocol was used, in which a food pellet was located at the end of each arm. Rats received one trial each day for 18 days. Each daily trial terminated when all eight food pellets had been obtained or when either 16 choices were made or 15 minutes had elapsed. After completion of this training phase, a second training phase was carried out in which the memory demand was increased by imposing a brief delay during the trial. At the beginning of each trial, three arms of the eight-arm maze were blocked. Rats were allowed to obtain food on the five arms to which access was permitted during this initial “information phase” of the trial. Rats were then removed from the maze for 60 seconds, during which time the barriers on the maze were removed, thus allowing access to all eight arms. […]

GABAA α5 receptor = target: T1, GABAA α5 receptor (Rattus norvegicus, UniProt P18508+P19969); test: GABAA α5 receptor occupancy with Ro 15-4513 tracer (hippocampus vs cerebellum); assay type: in vivo; conditions: for % RO (L-655,708 Method): young Long Evans rats
T1 construct: from tissue; host or cells: rat brain in vivo; hippocampus versus cerebellum
T1 sequence (P19969 32-464 limits assumed): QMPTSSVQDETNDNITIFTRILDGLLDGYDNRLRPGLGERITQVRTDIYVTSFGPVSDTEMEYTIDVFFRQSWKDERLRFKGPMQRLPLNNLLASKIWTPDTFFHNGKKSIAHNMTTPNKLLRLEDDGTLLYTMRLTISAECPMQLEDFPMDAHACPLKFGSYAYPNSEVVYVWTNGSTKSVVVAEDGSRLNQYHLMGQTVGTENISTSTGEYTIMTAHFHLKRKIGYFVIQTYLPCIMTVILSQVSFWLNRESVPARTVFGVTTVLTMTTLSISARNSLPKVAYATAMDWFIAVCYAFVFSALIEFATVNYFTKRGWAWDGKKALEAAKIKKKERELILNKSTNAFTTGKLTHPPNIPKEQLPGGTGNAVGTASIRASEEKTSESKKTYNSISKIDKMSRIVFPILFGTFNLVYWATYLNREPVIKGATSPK
T1 sequence (P18508 39-466): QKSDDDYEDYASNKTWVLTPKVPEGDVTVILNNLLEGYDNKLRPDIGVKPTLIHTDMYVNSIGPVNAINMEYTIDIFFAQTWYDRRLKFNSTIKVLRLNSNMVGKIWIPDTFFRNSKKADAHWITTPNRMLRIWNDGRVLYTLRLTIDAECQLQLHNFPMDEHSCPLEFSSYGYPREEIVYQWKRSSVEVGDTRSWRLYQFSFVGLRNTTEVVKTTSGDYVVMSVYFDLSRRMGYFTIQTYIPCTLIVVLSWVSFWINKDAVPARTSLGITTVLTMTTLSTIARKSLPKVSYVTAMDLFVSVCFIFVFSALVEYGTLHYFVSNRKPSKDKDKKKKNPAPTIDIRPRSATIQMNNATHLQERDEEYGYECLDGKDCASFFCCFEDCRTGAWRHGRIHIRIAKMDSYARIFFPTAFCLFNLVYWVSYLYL
Text: (§1) Food and water were available ad libitum.

[1] = assay type: in vivo, rat; conditions: for Hippocampus exposure / Plasma exposure / Young Hippocampus exposure / Young Plasma exposure: young Long Evans rats; for Aged Hippocampus exposure / Aged Plasma exposure: aged Long Evans rats
Procedure: as §1
For plasma exposures, blood samples were centrifuged at 14000 rpm for 16 minutes. After centrifuging, 50 ul of supernatant (plasma) from each sample was added to 200 μl of acetonitrile plus 0.1% formic acid. […] Samples were sonicated for 5 minutes in an ultrasonic water bath, followed by centrifugation for 30 minutes, at 16000 RPM. 100 ul of supernatant was removed from each sample vial and placed in a new glass auto sample vial, followed by the addition of 300 μl of sterile water (pH 6.5).
Additional studies were conducted in aged Long-Evans rats in order to determine the exposures at the behaviorally relevant doses in the cognition studies. Exposure in young Long-Evans rats was also determined to bridge with the receptor occupancy studies that were conducted in young Long-Evans rats. Exposures in young and aged Long-Evans rats were relatively similar (Table 4, FIG. 4).

α5-containing GABAA R = target: T2, α5-containing GABAA R (Homo sapiens, UniProt P18507+P31644); conditions: EC20; cited from earlier work
T2 sequence (P31644 32-462): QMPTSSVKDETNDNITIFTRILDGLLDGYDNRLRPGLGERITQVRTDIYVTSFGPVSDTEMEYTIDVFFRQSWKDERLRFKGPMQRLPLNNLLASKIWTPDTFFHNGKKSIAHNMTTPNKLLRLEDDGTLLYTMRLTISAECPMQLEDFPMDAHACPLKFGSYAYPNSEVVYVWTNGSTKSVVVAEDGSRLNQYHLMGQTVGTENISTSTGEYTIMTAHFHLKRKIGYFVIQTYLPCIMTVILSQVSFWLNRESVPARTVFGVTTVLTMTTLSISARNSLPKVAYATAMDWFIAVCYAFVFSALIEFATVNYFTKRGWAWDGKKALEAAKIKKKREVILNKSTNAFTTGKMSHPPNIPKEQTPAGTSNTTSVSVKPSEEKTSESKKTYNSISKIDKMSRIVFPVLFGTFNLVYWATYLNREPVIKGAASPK
T2 sequence (P28472 26-473 partner): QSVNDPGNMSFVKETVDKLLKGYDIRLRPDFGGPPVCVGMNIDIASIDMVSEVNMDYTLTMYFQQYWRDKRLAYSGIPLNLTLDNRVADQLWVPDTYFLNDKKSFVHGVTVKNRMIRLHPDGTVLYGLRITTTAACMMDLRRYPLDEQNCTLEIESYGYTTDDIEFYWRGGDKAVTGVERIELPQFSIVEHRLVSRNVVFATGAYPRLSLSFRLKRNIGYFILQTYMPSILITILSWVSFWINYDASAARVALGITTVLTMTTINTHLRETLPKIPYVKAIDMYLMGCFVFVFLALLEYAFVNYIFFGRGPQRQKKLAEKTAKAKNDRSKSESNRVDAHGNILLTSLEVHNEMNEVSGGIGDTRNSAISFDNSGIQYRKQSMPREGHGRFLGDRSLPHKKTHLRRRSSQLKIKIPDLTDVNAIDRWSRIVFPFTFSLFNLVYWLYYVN
T2 sequence (P18507 40-467 limits assumed): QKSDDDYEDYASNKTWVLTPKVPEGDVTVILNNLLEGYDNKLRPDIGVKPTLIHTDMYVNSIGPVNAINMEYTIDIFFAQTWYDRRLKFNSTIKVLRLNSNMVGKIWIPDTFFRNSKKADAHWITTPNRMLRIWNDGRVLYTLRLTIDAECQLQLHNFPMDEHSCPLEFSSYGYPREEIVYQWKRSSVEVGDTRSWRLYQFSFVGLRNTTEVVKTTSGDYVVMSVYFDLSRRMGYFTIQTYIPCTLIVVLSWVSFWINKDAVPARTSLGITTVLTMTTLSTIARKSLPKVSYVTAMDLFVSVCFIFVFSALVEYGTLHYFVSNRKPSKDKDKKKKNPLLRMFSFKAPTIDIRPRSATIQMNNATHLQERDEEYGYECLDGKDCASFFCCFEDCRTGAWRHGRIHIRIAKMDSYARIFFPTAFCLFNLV

Question: Which “average no. of errors ± SEM, retention test” value (aged-impaired (AI) rats; 3 mg/kg ip) does the source give for `COC(=O)c1c(-c2ccccc2)cnnc1-c1ccccc1` [methyl 3,5-diphenylpyridazine-4-carboxylate] here?
Answer: 1.31±0.40

Question: What about the “memory performance relative to vehicle control” value (aged-impaired (AI) rats; 3 mg/kg, t(7)=4.233, p=0.004) of the same compound?
Answer: significantly improved memory performance

Question: And the “% RO (L-655,708 Method)” value (GABAA α5 receptor; 0.01 mg/kg i.v.)?
Answer: 19.2%

Question: And the “% RO (L-655,708 Method)” value (GABAA α5 receptor; 0.1 mg/kg i.v.)?
Answer: 16.4%

Question: And the “% RO (L-655,708 Method)” value (GABAA α5 receptor; 1 mg/kg i.v.)?
Answer: 38.5%

Question: What about the “effect on Ro 15-4513 binding in hippocampus” value (GABAA α5 receptor; 0.01-10 mg/kg, i.v.) of the same compound?
Answer: dose-dependently reduced; also recorded: blocked

Question: What about the “effect on Ro 15-4513 levels (binding) in cerebellum” value (GABAA α5 receptor; 0.01-10 mg/kg, i.v.) of the same compound?
Answer: without affecting; also recorded: did not affect

Question: And the “GABAA α5 receptors occupied” value (GABAA α5 receptor; at exposures behaviorally active in aged-impaired rats (FIG. 4))?
Answer: about 32%

Question: What about the receptor occupancy at 10 mg/kg (GABAA α5 receptor; rat, iv, 10 mg/kg) of the same compound?
Answer: > 90%

Question: And the ED50 (GABAA α5 receptor; rat, iv, ratio method)?
Answer: 1.8 mg/kg

Question: And the Hippocampus exposure ([1]; 0.01 mg/kg i.v.)?
Answer: BQL

Question: And the Plasma exposure ([1]; 0.01 mg/kg i.v.)?
Answer: BQL

Question: And the Plasma exposure ([1]; 0.1 mg/kg i.v.)?
Answer: BQL

Question: And the Hippocampus exposure ([1]; 1 mg/kg i.v.)?
Answer: 180.0 ng/g

Question: What about the “Aged Hippocampus exposure” value ([1]; 1 mg/kg ip) of the same compound?
Answer: 38.8 ng/g

Question: And the “Aged Plasma exposure” value ([1]; 1 mg/kg ip)?
Answer: 45.2 ng/mL

Question: And the “Young Hippocampus exposure” value ([1]; 1 mg/kg ip)?
Answer: 25.9 ng/g

Question: What about the “Young Plasma exposure” value ([1]; 1 mg/kg ip) of the same compound?
Answer: 20.0 ng/mL

Question: What about the “Aged Hippocampus exposure” value ([1]; 3 mg/kg ip) of the same compound?
Answer: 177.5 ng/g

Question: What about the “Aged Plasma exposure” value ([1]; 3 mg/kg ip) of the same compound?
Answer: 196 ng/mL

Question: And the “Young Hippocampus exposure” value ([1]; 3 mg/kg ip)?
Answer: 129.1 ng/g

Question: What about the “Young Plasma exposure” value ([1]; 3 mg/kg ip) of the same compound?
Answer: 132.9 ng/mL

Question: And the brain/plasma ratios ([1]; Long Evans, rat, in vivo)?
Answer: > 1

Question: And the “increase in hippocampal exposure” value ([1]; dose from 0.1 to 1 mg/kg, i.v.)?
Answer: 12 fold

Question: What about the “increase in hippocampal exposure” value ([1]; dose from 1 to 10 mg/kg, i.v.) of the same compound?
Answer: ~5 fold

Question: What about the “increase in plasma exposure” value ([1]; dose from 1 to 10 mg/kg, i.v.) of the same compound?
Answer: 12 fold

Question: What about the “α5 in vitro efficacy” value (α5-containing GABAA R) of the same compound?
Answer: +27
